{
  "source": "paper PMC7324980",
  "about": "“A novel bacterial β-N-acetyl glucosaminidase from Chitinolyticbacter meiyuanensis possessing transglycosylation and reverse hydrolysis activities” (Biotechnology for Biofuels, 2020)",
  "biological_target": "T1, CmNAGase (Chitinolyticbacter meiyuanensis, UniProt A0A7D5C7R1)",
  "T1 construct": "full length, 836 residues (2508 bp), no signal peptide predicted, C-terminal His6-tag, pET-28a(+), E. coli BL21(DE3), 92 kDa; native peptides […], […], […]; catalytic D508, E509",
  "T1 sequence (A0A7D5C7R1 entry or part of it)": "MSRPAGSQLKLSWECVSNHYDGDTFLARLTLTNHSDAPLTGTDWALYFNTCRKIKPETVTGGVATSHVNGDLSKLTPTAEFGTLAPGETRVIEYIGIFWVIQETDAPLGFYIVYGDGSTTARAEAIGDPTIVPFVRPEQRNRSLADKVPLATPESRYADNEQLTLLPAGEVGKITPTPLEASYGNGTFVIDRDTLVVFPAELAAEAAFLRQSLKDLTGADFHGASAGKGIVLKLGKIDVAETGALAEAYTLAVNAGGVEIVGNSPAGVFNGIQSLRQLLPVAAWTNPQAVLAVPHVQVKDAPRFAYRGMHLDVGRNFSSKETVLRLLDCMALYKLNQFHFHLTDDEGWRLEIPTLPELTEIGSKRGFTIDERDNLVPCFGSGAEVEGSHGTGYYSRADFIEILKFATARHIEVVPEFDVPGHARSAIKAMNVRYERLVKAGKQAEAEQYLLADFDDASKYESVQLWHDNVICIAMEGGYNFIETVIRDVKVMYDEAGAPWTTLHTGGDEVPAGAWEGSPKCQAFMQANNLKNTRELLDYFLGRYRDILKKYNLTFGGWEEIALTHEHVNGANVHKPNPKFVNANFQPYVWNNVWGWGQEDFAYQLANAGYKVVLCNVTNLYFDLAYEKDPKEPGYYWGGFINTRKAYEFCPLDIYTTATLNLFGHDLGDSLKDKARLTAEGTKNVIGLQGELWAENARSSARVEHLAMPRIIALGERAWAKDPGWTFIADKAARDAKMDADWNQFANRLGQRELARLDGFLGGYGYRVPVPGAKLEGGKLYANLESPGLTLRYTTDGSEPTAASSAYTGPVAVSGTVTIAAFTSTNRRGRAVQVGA",
  "assay": "pNP release at […] nm, Lineweaver-Burk",
  "assay_type": "biochemical",
  "conditions": "50 mM sodium citrate, pH 5.4, 40 °C, 50-1000 μM substrate",
  "data": [
    {"smiles": "CC(=O)N[C@H]1[C@H](Oc2ccc([N+](=O)[O-])cc2)O[C@H](CO)[C@@H](O)[C@@H]1O", "note": "[pNP-GlcNAc]", "values": [
      {"measurement": "Km", "value": 500, "unit": "µM"}
    ]}
  ]
}
